The values that follow come from patent US20250215177A1, “BLOWING AGENT, FOAMING RESIN COMPOSITION, POLYUREA RESIN FOAM, AND PRODUCTION METHOD FOR POLYUREA RESIN FOAM” (MITSUBISHI GAS CHEMICAL COMPANY, INC., priority 2022, published 2025).

What all share (format): physicochemical
Series [1] is described as follows: Amine value of amine compound (JIS K7237-1995 titration). The conditions noted are these: titration with 0.1 N perchloric acid-acetic acid. The protocol:
The amine value was measured by the following measurement method according to JIS K7237-1995. • (1) 0.1 g of the amine compound was dissolved in 20 mL of acetic acid. • (2) The amine value was calculated by titrating the solution prepared in (1) above with 0.1 N perchloric acid-acetic acid solution using an automatic potentiometric titrator (AT-610 made by Kyoto Electronics Manufacturing Co., Ltd.)

The nature of series [2]: Percentage increase of mass of amine compound left to stand in air (absorption of carbon dioxide). The conditions noted are these: 23° C. and 50% RH. The source says:
Percentage increase of mass of cyclic amine compound (a1) [% by mass]=100×amount of increase of mass of cyclic amine compound (a1)(g)/(mass of cyclic amine compound (a1)(g)+amount of increase of mass of cyclic amine compound (a1)(g)).
[…] By doing so 1,3-BAC and carbon dioxide in the air were reacted to give a blowing agent (carbonate of 1,3-BAC). At that stage, to suppress uneven reaction, the container in which the amine compound was placed was shaken as necessary so as not to leave unreacted 1,3-BAC.
Next, the amount of increase of the mass of 1,3-BAC was measured and the percentage increase of the mass of the amine compound was calculated by the following equation.

Series [3] is described as follows: Maximum endothermic temperature of amine compound (DTA). The conditions noted are these: heating rate 10° C./minute, 23 to 350° C., nitrogen; evaporation of amine compound. The protocol:
The cyclic amine compound (a1) is heated at a heating rate of 10° C./minute from 23° C. to 350° C. and the temperature at which the amount of heat absorbed due to evaporation of the amine compound (a1) reaches the maximum is measured, and the temperature is defined as the maximum endothermic temperature of the amine compound (a1).
The maximum endothermic temperature of the amine compound was measured by subjecting the amine compound to DTA as described below. First, […] of the amine compound was performed under conditions of a temperature range of 23 to 350° C., a heating rate of 10° C./minute and a nitrogen atmosphere using a differential thermogravimeter (product name DTG-60 made by Shimadzu Corporation). The temperature at which the amount of heat absorbed due to the evaporation of the amine compound was the maximum was calculated from the DTA curve obtained, and the temperature was determined as the maximum endothermic temperature of the amine compound.

Series [4] in a line: Acid dissociation constant (pKa) of amine compound (potentiometric titration). The conditions noted are these: in purified water, 25±2° C. How it is done: The acid dissociation constant of the amine compound was measured by the following measurement method. • (1) 0.2 g of the amine compound was dissolved in 30 mL of purified water. • (2) The acid dissociation constant (pKa) was calculated by titrating the solution prepared in (1) above with 0.1 N perchloric acid-acetic acid solution using an automatic potentiometric titrator (AT-610 made by Kyoto Electronics Manufacturing Co., Ltd.). The temperature in the measurement was 25±2° C.

The nature of series [5]: Maximum carbon dioxide (CO2) release temperature of amine compound (DSC after CO2 absorption in air). The conditions noted are these: amine compound after 24 hours in air at 23° C. and 50% RH; heating rate 10° C./minute, 23 to 250° C., nitrogen. How it is done: The cyclic amine compound (a1) with carbon dioxide absorbed is heated at a heating rate of 10° C./minute from 23° C. to 250° C., and the temperature at which the amount of heat absorbed due to desorption of carbon dioxide reaches the maximum is measured, and the temperature is defined as the maximum carbon dioxide release temperature. In this regard the cyclic amine compound (a1) with carbon dioxide absorbed may be prepared by leaving 5 mmol of the cyclic amine compound (a1) to stand in air at 23° C. and 50% RH for 24 hours.
A carbon dioxide detector and a Petri dish were placed in an openable desiccator (inner dimension: 370 mm×260 mm×272 mm). […]
Then the amine compound was taken out of the desiccator to give an amine compound with carbon dioxide absorbed. The maximum carbon dioxide release temperature of the amine compound with carbon dioxide absorbed was measured by subjecting the amine compound to DSC as described below. […] The temperature at which the amount of heat absorbed due to the desorption of carbon dioxide was the maximum was calculated from the DSC curve obtained, and the temperature was determined as the maximum carbon dioxide release temperature of the amine compound.

SMILES strings stand for the structures.

In series [1], `NCC1CCCC(CN)C1` (stereo not shown) [1,3-BAC, 1,3-bis(aminomethyl)cyclohexane] showed an Amine value of 789 mgKOH/g. Further, in series [2] (CO2 absorption time 10 weeks), the “Percentage increase of mass” value was 22.5 % by mass.
In series [3], `NCCN` [Ethylenediamine, ethylenediamine] yielded a Maximum endothermic temperature of 126.7 °C. In series [4], this compound returned a pKa of 9.8. In series [5], the “Maximum CO2 release temperature” value amounted to 103.4 °C. Further, the “Percentage increase of mass” value in series [2] (CO2 absorption time 1 week) turned out to be 44.3 % by mass.
Compound `NCc1cccc(CN)c1` [MXDA, metaxylylenediamine] yielded an Amine value in series [1] of 824 mgKOH/g.

A word on the pKa: it is the pH at which an ionisable group is half protonated. Read a high pKa as a group that holds its proton tightly.
